Article PMC9658513, “Discovery of Compounds That Selectively Repress the Amyloidogenic Processing of the Amyloid Precursor Protein: Design, Synthesis and Pharmacological Evaluation of Diphenylpyrazoles” (International Journal of Molecular Sciences, 2022)
Like-named read-outs stand apart in the source and are kept apart here.

Tests used:
[1] = test system: SY5Y-APP^695WT cells; settings: 50% cell death after 72 h treatment; read-out: Cytotox. CC50; cited from earlier work
[2] = test system: Aβ1–40 peptide secretion; settings: SY5Y cells; cited from earlier work
[3] = test system: AICD (APP intracellular domain); experiment: AICD level by Western blotting in SY5Y-APP^WT cells; assay type: cell-based, human; settings: concentration increasing AICD 20-fold vs untreated control, read-out: AICD (C20)
Description: (§1) The final and selected intermediate compounds were evaluated for their ability to modulate APP processing in the SH-SY5Y human neuroblastoma cell line stably expressing the neuronal isoform of human wild-type APP^695 (SY5Y-APP^WT), a well-established model for the study of APP metabolism. APP carboxy-terminal fragments (αCTFs and AICD) levels were assessed by Western blotting (WB). The effect of the reference and test compounds on αCTFs and AICD is expressed as the intensity of corresponding WB bands. The concentration of compounds able to increase 20-times αCTFs and AICD (C20) when compared to the control condition was calculated. Selected compounds were also evaluated for their ability to modulate the secretion of soluble APP fragments (sAPPα and sAPPβ). Aβ1–x levels (Aβ1–40 and Aβ1–42) after treatment with the reference and tested compounds were measured in the cell media by ELISA (Table 1). […] Selected hit compounds were then further evaluated for their ability to decrease the level of N-truncated Aβ peptides (Aβx–38, Aβx–40, and Aβx–42).
(§2) The human neuroblastoma cell line SY5Y-APP^695WT was maintained in Dulbecco’s modified Eagle medium (DMEM, high glucose, pyruvate—GIBCO, Life Technologies, Carlsbad, CA, USA) supplemented with 10% fetal bovine serum, 2 mM L-glutamine, 1 mM non-essential amino acids and penicillin/streptomycin (GIBCO, Life Technologies, Carlsbad, CA, USA) at 37 °C in a 5% CO2 humidified incubator [36]. For compound treatment, a 10 mM stock solution was diluted in freshly supplemented DMEM medium to obtain the precise final concentration of the drug. Cells were plated at a density of 5 × 10^5 cells per well into 12-well plates and cultured with 1 mL supplemented DMEM cell medium for 24 h before compound exposure. The following day, the cell medium was replaced with fresh medium containing the compounds diluted at the indicated concentrations. Cells were treated for 24 h. At the end of the treatments, the cell medium was collected and kept at −80 °C until use, cells were rinsed once with PBS and extracted in 100 µL of Laemmli buffer (10 mM Tris, 20% glycerol, and 2% sodium dodecyl sulfate) using a cell-scraper. The cell lysate was further sonicated (30 pulses of 0.5 s, 60 Hz) for 5 min. Total protein concentration was determined using the Pierce BCA Protein Assay Kit (Thermo Scientific, Waltham, MA, USA) according to the manufacturer’s instructions. Samples were stored at −80 °C until analysis.
(§3) Cell protein lysates were prepared for Western blot analysis by diluting the sample with 1 volume of NuPAGE® lithium dodecyl sulfate (LDS) 2X sample buffer supplemented with 20% NuPAGE® sample reducing agents (Invitrogen). Samples were heated for 10 min at 100 °C. Ten µg of total proteins per well were loaded onto precast 4–12% Criterion XT Bis-Tris polyacrylamide gels (Bio-Rad) and electrophoresis was achieved after applying a tension of 150 V for 90 min using a Criterion electrophoresis cell with the NuPAGE® MOPS SDS running buffer (1X). Proteins were transferred to a nitrocellulose membrane of […] pore size (G&E Healthcare, Madison, WI, USA) using the Criterion blotting system and applying a tension of 100 V for 45 min. To resolve proteins of low molecular weights such as carboxy-terminal fragments of APP, 12% Criterion XT Bis-Tris polyacrylamide gels (Bio-Rad, Hercules, CA, USA) were used, and electrophoresis was performed for 70 min at 150 V in a NuPAGE® MES SDS running buffer (1X). Proteins were transferred to a nitrocellulose membrane of 0.2 µm pore size (G&E Healthcare, Madison, WI, USA) at 100 V for 40 min. Molecular weight calibration was achieved using molecular weight markers (Novex and Magic Marks, Life Technologies, Carlsbad, CA, USA). Protein transfer and quality were determined by a reversible Ponceau Red coloration (0.2% xylidine Ponceau Red and 3% trichloroacetic acid). […]

[4] = test system: αCTF (APP carboxy-terminal fragment); experiment: αCTF level by Western blotting in SY5Y-APP^WT cells; assay type: cell-based, human; settings: for EC (20-fold increase): concentration increasing αCTF 20-fold vs untreated control, SY5Y-APP^WT cells, read-out: αCTF (C20)
Description: as §1, §2, §3

[5] = test system: sAPPβ secretion; experiment: sAPPβ secretion (MSD sAPPα/sAPPβ Multiplex Kit); assay type: cell-based, human; settings: SY5Y cells, mean ± SD of at least three experiments in triplicate
Description: (§4) A selection of compounds with several selected activities was performed including sAPPα and sAPPβ, which were further explored. […] The decrease in Aβ could result from a decrease in either β- or γ-secretase cleavage or an increase in the α-secretase cleavage of APP. Thus, medium concentrations of sAPPβ and sAPPα, which are the β- and α-secretase extramembrane shed APP fragments, were determined after cell drug treatments.
as §2
(§5) Conditioned media of SY5Y-APP^695WT collected at the end of treatments were centrifuged at 1000× g for 5 min to eliminate cell debris.
(§6) Aβ1–40/Aβ1–42 peptides, Aβx–38/Aβx–40/Aβx–42, and sAPPα/sAPPβ concentrations in pg/mL were determined, respectively, using amyloid-beta 40 and 42 Human ELISA Kits (Invitrogen), the V-PLEX Plus Aβ Peptide Panel 1 (4G8) Kit (Meso Scale Diagnostics, MSD R©, Rockville, MD, USA), and the sAPPα/sAPPβ Multiplex Kit (Meso Scale Diagnostics, MSD R©, Rockville, MD, USA) according to the manufacturer’s instructions.

[6] = test system: sAPPα; experiment: sAPPα secretion (MSD sAPPα/sAPPβ Multiplex Kit); assay type: cell-based, human; settings: concentration increasing sAPPα 1.5-fold vs untreated control
Description: as §4
as §2, with “The cell lysate was further sonicated (30 pulses of 0.5 s, 60 Hz) for 5 min.” left out, “Samples were stored at −80 °C until analysis.” left out
as §6

[7] = test system: Aβ1–40 peptide secretion; experiment: Aβ1–40 secretion in cell medium by ELISA; assay type: cell-based, human
Description: as §1, §2, §5, §6

[8] = in vitro; assay type: cell-based, human; settings: human
Description: (§7) Cytotoxicity was measured using 3-(4,5-dimethylthiazol-2-yl)-5-(3-carboxymethoxyphenyl)-2-(4-sulfophenyl)-2H-tetrazolium (MTS) tests. SY5Y-APP^695WT cells were plated in a 96-well plate at 3 × 10^4 cells per well and allowed to attach for 24 h. Cells were then incubated for 72 h with 100 µL of DMEM with 10% SVF containing (or not) the defined concentration of drugs. Cytotoxicity was determined by using the colorimetric MTS assay (Cell Titer 96® Aqueous One Solution Cell Proliferation Assay-MTS Promega, Madison, WI, USA) according to the manufacturer’s instructions. Absorbance was read at 490 nm.

[9] = test system: Aβ1–42 peptide secretion; experiment: Aβ1–42 secretion in cell medium by ELISA; assay type: cell-based, human; settings: SY5Y-APP^WT cells, 24 h treatment, mean ± SD of at least three experiments in triplicate
Description: as §1, §2, §5, §6

[10] = test system: p62/LC3; experiment: Ratio between p62 and LC3 expression levels; assay type: cell-based, human; settings: compound at 3 µM, 24 h, SY5Y-APP^wt cells
Description: Compounds from both series were selected to first determine the potential relationship between the repression of Aβ1–x production and the increased expression of LC3 and p62. […] We then also considered the ratio between the p62 and LC3 expression levels.
Figure 3 Effect of compounds 24, 33, 34, 57, 65, 67, 70, and 71 on the autophagic flux in SY5Y-APP^wt cells. […] Cell lysates were immunolabeled with the following antibodies: p62 (a), LC3 (b), and β-actin. Statistical significance was set at * p < 0.05, ** p < […], *[…], **** p < 0.0001, and ns as not significant.

[11] = test system: SY5Y-APP^695WT cells; experiment: in vitro; assay type: cell-based, human
Description: as §7

Molecule	CC50 [1]	IC50 [2]	EC (20-fold increase) ([3]; Homo sapiens)	C20 for CTFα and AICD ([4]; CTFα and AICD together)	EC (20-fold increase) ([4]; Homo sapiens)	IC50 ([5]; Homo sapiens)	sAPPα C1.5 [6]	IC50 ([7]; Homo sapiens, Aβ1–40 and Aβ1–42 not distinguished, read-out: IC50 for Aβ secretion (Aβ1–x production))	IC50 ([7]; Homo sapiens, SY5Y-APP^WT cells, 24 h treatment, mean ± SD of at least three experiments in triplicate, read-out: Aβ1–40 IC50)	CC50 at 72 h [8]	IC50 ([9]; Homo sapiens)	EC (20-fold increase) [3]	EC (20-fold increase) [4]	IC50 [5]	IC50 ([7]; SY5Y-APP^WT cells, 24 h treatment, mean ± SD of at least three experiments in triplicate, read-out: Aβ1–40 IC50)	p62/LC3 [10]	CC50 [11]	Cytotox. CC50 [11]	IC50 [9]
CCN(CC)CCCC(C)Nc1ccnc2cc(Cl)ccc12 (centres unmarked) [CQ, chloroquine, reference compound]	30 µM	7 µM	–	–	–	–	–	–	–	–	–	–	–	–	–	–	–	–	–
Cc1cn(-c2cccc(CN(C)CCCN(C)C)c2)nc1-c1ccc(CN(C)CCCN(C)C)cc1 [Compound 69, [3-(Dimethylamino)propyl][(4-{1-[3-({[3-(dimethylamino)propyl](methyl)amino}methyl)phenyl]-4-methyl-1H-pyrazol-3-yl}phenyl)methyl]methylamine]	–	–	1 µM	around 1 µM	0.6 µM	2.8 ± 1.1 µM	>5 µM	~1 µM	1.4 ± 0.1 µM	2 µM	1.6 ± 0.1 µM	–	–	–	–	–	–	–	–
N′-[[3-[4-(Dimethylaminomethyl)-3-[4-[3-(dimethylamino)propyl]phenyl] Pyrazol-1-yl]phenyl]methyl]-N,N,N′-trimethyl-propane-1,3-diamine [Compound 34]	–	–	–	–	–	–	>10 µM	–	–	–	–	1.9 µM	1.1 µM	4.5 ± 0.7 µM	5.7 ± 0.5 µM	0.91	> 100 µM	100 µM	8.3 ± 0.2 µM
